From ChEMBL document CHEMBL1201862, “PubChem BioAssay data set” (2004)
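Values below derive from 48-hour exposures of cells grown in 96-well plates, with endpoints linearly interpolated between the two concentrations bracketing the appropriate inhibition level. GI50 marks 50% less growth.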 The source made the active and inactive calls. Cut-off read from the data, not from the text of the source: active = GI50 up to about 1.1 µM and inactive = higher.

Legend:
Assay in all cases: inhibition of tumour cell growth, NCI panel, 48 h
[1] = system: 786-0
[2] = system: A498
[3] = system: A549
[4] = system: ACHN
[5] = system: BT-549
[6] = system: CAKI-1
[7] = system: CCRF-CEM
[8] = system: COLO 205
[9] = system: DU-145
[10] = system: EKVX
[11] = system: HCC 2998
[12] = system: HCT-116
[13] = system: HCT-15
[14] = system: HL-60
[15] = system: HOP-62
[16] = system: HOP-92
[17] = system: HT-29
[18] = system: Hs-578T
[19] = system: IGROV-1
[20] = system: K562
[21] = system: KM12
[22] = system: LOX IMVI
[23] = system: M14
[24] = system: MCF7
[25] = system: MDA-MB-231
[26] = system: MDA-MB-435
[27] = system: MDA-N
[28] = system: MOLT-4
[29] = system: Malme-3M
[30] = system: NCI-H226
[31] = system: NCI-H23
[32] = system: NCI-H460
[33] = system: NCI-H522
[34] = system: NCI/ADR-RES
[35] = system: OVCAR-3
[36] = system: OVCAR-4
[37] = system: OVCAR-5
[38] = system: OVCAR-8
[39] = system: PC-3
[40] = system: RPMI-8226
[41] = system: RXF 393
[42] = system: SF-268
[43] = system: SF-295
[44] = system: SF-539
[45] = system: SK-MEL-28
[46] = system: SK-MEL-2
[47] = system: SK-MEL-5
[48] = system: SK-OV-3
[49] = system: SN12C
[50] = system: SNB-19
[51] = system: SNB-75
[52] = system: SR
[53] = system: SW-620
[54] = system: T47D
[55] = system: TK-10
[56] = system: U-251
[57] = system: UACC-257
[58] = system: UACC-62
[59] = system: UO-31

SMILES: S=C(/N=C1/NCC(CN2CCN(c3ccccc3)CC2)O1)Nc1ccccc1 (centres undefined)
- GI50 [1]: 76.7 µM (inactive)
- GI50 [2]: > 100 µM (inactive)
- GI50 [3]: 61 µM (inactive)
- GI50 [4]: > 100 µM (inactive)
- GI50 [5]: 37.5 µM (inactive)
- GI50 [6]: 73.3 µM (inactive)
- GI50 [7]: 30.5 µM (inactive)
- GI50 [8]: 28.6 µM (inactive)
- GI50 [9]: 56.9 µM (inactive)
- GI50 [10]: > 100 µM (inactive)
- GI50 [11]: 57.9 µM (inactive)
- GI50 [12]: 48.3 µM (inactive)
- GI50 [13]: 32.4 µM
- GI50 [14]: 29 µM (inactive)
- GI50 [15]: 77.3 µM (inactive)
- GI50 [16]: 92.3 µM (inactive)
- GI50 [17]: 42.2 µM (inactive)
- GI50 [18]: > 100 µM (inactive)
- GI50 [19]: > 100 µM (inactive)
- GI50 [20]: 35.2 µM (inactive)
- GI50 [21]: 65.2 µM (inactive)
- GI50 [22]: 25 µM (inactive)
- GI50 [23]: > 100 µM (inactive)
- GI50 [24]: 38.4 µM (inactive)
- GI50 [25]: 35.9 µM (inactive)
- GI50 [26]: 70.8 µM (inactive)
- GI50 [27]: > 100 µM (inactive)
- GI50 [28]: 27.5 µM (inactive)
- GI50 [29]: > 100 µM (inactive)
- GI50 [30]: > 100 µM (inactive)
- GI50 [31]: 29.3 µM (inactive)
- GI50 [32]: 23.3 µM (inactive)
- GI50 [33]: > 100 µM (inactive)
- GI50 [34]: > 100 µM (inactive)
- GI50 [35]: 52.2 µM (inactive)
- GI50 [36]: 49.3 µM (inactive)
- GI50 [37]: > 100 µM (inactive)
- GI50 [38]: > 100 µM (inactive)
- GI50 [39]: 39.9 µM (inactive)
- GI50 [40]: 42.3 µM (inactive)
- GI50 [41]: 39.8 µM (inactive)
- GI50 [42]: > 100 µM (inactive)
- GI50 [43]: 49 µM (inactive)
- GI50 [44]: 34.4 µM (inactive)
- GI50 [45]: > 100 µM (inactive)
- GI50 [46]: 35.6 µM (inactive)
- GI50 [47]: 35.3 µM (inactive)
- GI50 [48]: > 100 µM (inactive)
- GI50 [49]: > 100 µM (inactive)
- GI50 [50]: > 100 µM (inactive)
- GI50 [51]: > 100 µM (inactive)
- GI50 [52]: 34.6 µM (inactive)
- GI50 [53]: 52.7 µM (inactive)
- GI50 [54]: 29.7 µM (inactive)
- GI50 [55]: > 100 µM (inactive)
- GI50 [56]: 55.3 µM (inactive)
- GI50 [57]: > 100 µM (inactive)
- GI50 [58]: 39.7 µM (inactive)
- GI50 [59]: 11.6 µM (inactive)
